Data reported in PubChem BioAssay (NCI).
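Five compound concentrations were applied to cells in 96-well plates for 48 hours; endpoints were derived by simple linear interpolation of the resulting dose-response curve. The concentration for full growth arrest is given as TGI.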

Tests used:
Test in all cases: growth of human tumour cells (NCI), 48 h
[1] = test system: NCI-H460 lung
[2] = test system: UO-31 renal
[3] = test system: NCI-H522 lung
[4] = test system: SNB-75 CNS
[5] = test system: HOP-62 NSCLC
[6] = test system: OVCAR-4 ovarian
[7] = test system: DMS 273 small cell lung
[8] = test system: HT29 colon
[9] = test system: COLO 205 colon
[10] = test system: SNB-78 CNS
[11] = test system: TK-10 renal
[12] = test system: K-562 leukemia
[13] = test system: DMS 114 small cell lung
[14] = test system: KM20L2 colon
[15] = test system: HOP-92 NSCLC
[16] = test system: SN12C renal
[17] = test system: HCT-116 colon
[18] = test system: M19-MEL melanoma
[19] = test system: CCRF-CEM leukemia
[20] = test system: HOP-18 NSCLC
[21] = test system: OVCAR-5 ovarian
[22] = test system: M14 melanoma
[23] = test system: RXF 393 renal
[24] = test system: MOLT-4 leukemia
[25] = test system: SF-539 CNS
[26] = test system: SR leukemia
[27] = test system: UACC-257 melanoma
[28] = test system: RXF-631 renal
[29] = test system: SK-MEL-28 melanoma
[30] = test system: SW-620 colon
[31] = test system: DLD-1 colon
[32] = test system: IGROV1 ovarian
[33] = test system: HCT-15 colon
[34] = test system: UACC-62 melanoma
[35] = test system: CAKI-1 renal
[36] = test system: SK-MEL-2 melanoma
[37] = test system: 786-0 renal
[38] = test system: LXFL 529 NSCLC
[39] = test system: ACHN renal
[40] = test system: MALME-3M melanoma
[41] = test system: RPMI-8226 leukemia
[42] = test system: OVCAR-3 ovarian
[43] = test system: OVCAR-8 ovarian
[44] = test system: SF-268 CNS
[45] = test system: NCI-H226 lung
[46] = test system: NCI-H23 lung
[47] = test system: LOX IMVI melanoma
[48] = test system: EKVX NSCLC
[49] = test system: HL-60(TB) leukemia
[50] = test system: U251 CNS
[51] = test system: A498 renal
[52] = test system: SK-OV-3 ovarian
[53] = test system: A549 NSCLC
[54] = test system: SNB-19 CNS
[55] = test system: KM12 colon
[56] = test system: SK-MEL-5 melanoma
[57] = test system: HCC-2998 colon
[58] = test system: SF-295 CNS

Compound: O=C1[C@@H]2C(c3cccc([N+](=O)[O-])c3)=NO[C@@H]2C(=O)N1c1ccc(Cc2ccc(N3C(=O)[C@H]4C(c5cccc([N+](=O)[O-])c5)=NO[C@H]4C3=O)cc2)cc1
- TGI [1]: > 100 µM
- TGI [2]: > 100 µM
- TGI [3]: > 100 µM
- TGI [4]: > 100 µM
- TGI [5]: > 100 µM
- TGI [6]: > 100 µM
- TGI [7]: > 100 µM
- TGI [8]: > 100 µM
- TGI [9]: > 100 µM
- TGI [10]: > 100 µM
- TGI [11]: > 100 µM
- TGI [12]: > 100 µM
- TGI [13]: > 100 µM
- TGI [14]: > 100 µM
- TGI [15]: > 100 µM
- TGI [16]: > 100 µM
- TGI [17]: > 100 µM
- TGI [18]: > 100 µM
- TGI [19]: > 100 µM
- TGI [20]: > 100 µM
- TGI [21]: > 100 µM
- TGI [22]: > 100 µM
- TGI [23]: > 100 µM
- TGI [24]: > 100 µM
- TGI [25]: > 100 µM
- TGI [26]: > 100 µM
- TGI [27]: > 100 µM
- TGI [28]: > 100 µM
- TGI [29]: > 100 µM
- TGI [30]: > 100 µM
- TGI [31]: > 100 µM
- TGI [32]: > 100 µM
- TGI [33]: > 100 µM
- TGI [34]: > 100 µM
- TGI [35]: > 100 µM
- TGI [36]: > 100 µM
- TGI [37]: > 100 µM
- TGI [38]: > 100 µM
- TGI [39]: > 100 µM
- TGI [40]: > 100 µM
- TGI [41]: > 100 µM
- TGI [42]: > 100 µM

Compound: O=C(NO)C(=O)Nc1cc(Cl)ccc1Cl
- TGI [1]: > 100 µM
- TGI [2]: 51 µM
- TGI [3]: 49.1 µM
- TGI [4]: > 100 µM
- TGI [5]: > 100 µM
- TGI [43]: > 100 µM
- TGI [6]: > 100 µM
- TGI [44]: > 100 µM
- TGI [7]: > 100 µM
- TGI [8]: > 100 µM
- TGI [9]: > 100 µM
- TGI [10]: > 100 µM
- TGI [45]: > 100 µM
- TGI [11]: > 100 µM
- TGI [12]: > 100 µM
- TGI [46]: > 100 µM
- TGI [13]: > 100 µM
- TGI [47]: > 100 µM
- TGI [14]: > 100 µM
- TGI [15]: > 100 µM
- TGI [48]: > 100 µM
- TGI [49]: > 100 µM
- TGI [16]: > 100 µM
- TGI [50]: > 100 µM
- TGI [17]: > 100 µM
- TGI [51]: > 100 µM
- TGI [18]: > 100 µM
- TGI [19]: > 100 µM
- TGI [52]: > 100 µM
- TGI [20]: > 100 µM
- TGI [21]: > 100 µM
- TGI [22]: > 100 µM
- TGI [23]: > 100 µM
- TGI [24]: > 100 µM
- TGI [25]: > 100 µM
- TGI [53]: > 100 µM
- TGI [54]: > 100 µM
- TGI [26]: > 100 µM
- TGI [27]: > 100 µM
- TGI [28]: > 100 µM
- TGI [29]: > 100 µM
- TGI [30]: > 100 µM
- TGI [31]: > 100 µM
- TGI [32]: 55.3 µM
- TGI [55]: > 100 µM
- TGI [56]: > 100 µM
- TGI [33]: > 100 µM
- TGI [34]: > 100 µM
- TGI [57]: > 100 µM
- TGI [35]: > 100 µM
- TGI [36]: > 100 µM
- TGI [37]: > 100 µM
- TGI [38]: > 100 µM
- TGI [39]: > 100 µM
- TGI [58]: > 100 µM
- TGI [40]: > 100 µM
- TGI [41]: > 100 µM
- TGI [42]: > 100 µM
